For one assay, the target named is T1, SIRT1 (Homo sapiens, UniProt Q96EB6).
T1 construct: purchased Cayman (Ann Arbor, Mich., USA)
T1 sequence (Q96EB6 1-747): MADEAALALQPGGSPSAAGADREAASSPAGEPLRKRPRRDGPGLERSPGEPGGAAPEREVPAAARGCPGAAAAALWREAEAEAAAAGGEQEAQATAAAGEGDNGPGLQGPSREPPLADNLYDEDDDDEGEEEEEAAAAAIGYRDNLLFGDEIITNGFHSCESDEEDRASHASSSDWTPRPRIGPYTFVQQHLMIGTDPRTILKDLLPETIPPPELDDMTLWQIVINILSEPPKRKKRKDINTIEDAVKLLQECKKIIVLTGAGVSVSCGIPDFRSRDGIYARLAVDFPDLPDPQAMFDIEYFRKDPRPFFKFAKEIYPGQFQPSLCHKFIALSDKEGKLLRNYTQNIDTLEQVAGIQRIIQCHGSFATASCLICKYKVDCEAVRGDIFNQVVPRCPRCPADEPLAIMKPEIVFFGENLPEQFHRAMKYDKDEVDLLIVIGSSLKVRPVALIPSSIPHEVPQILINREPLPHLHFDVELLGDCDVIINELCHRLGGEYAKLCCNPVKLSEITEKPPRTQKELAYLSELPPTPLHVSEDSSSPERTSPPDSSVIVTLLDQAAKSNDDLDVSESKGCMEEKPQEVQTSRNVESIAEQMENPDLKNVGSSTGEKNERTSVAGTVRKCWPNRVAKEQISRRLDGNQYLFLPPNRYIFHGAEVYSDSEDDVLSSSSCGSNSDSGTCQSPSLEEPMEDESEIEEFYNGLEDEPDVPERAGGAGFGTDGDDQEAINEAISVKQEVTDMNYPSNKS
Briefly: SIRT1 direct fluorescent assay. The class given is biochemical. The method, then:
All materials were provided from a Sirt1 direct fluorescent screening assay kit (Cayman, Ann Arbor, Mich., USA).
SIRT1, p53 conjugated aminomethyl coumarin (AMC) protein, and 3 mM NAD^+ were added to a diluted analysis buffer (50 mM Tris-HCl, pH 8.0, 137 mM NaCl, 2.7 mM KCl, and 1 mM MgCl2).
25 μL of the analysis buffer, 5 μL of diluted SIRT1, and 5 μL of a solvent were added to each of three 100% initial activity wells of a 96-well plate.
30 μL of the analysis buffer and 5 μL of a solvent were added to each of three background wells of the 96-well plate.
25 μL of the analysis buffer, 5 μL of diluted SIRT1, and 5 μL of a diluted test compound were added to each of three sample wells of the 96-well plate. The final DMSO concentration was less than 2%.
15 μL of a 3 mM NAD^+-containing substrate solution was added to all wells to begin the reaction. The 96-well plate was covered with a plate cover, and then incubated in a shaker at room temperature (25 to 30° C.) for 45 minutes.
A stop/developing solution was prepared. To prepare the final 5 mL solution, 200 μL of nicotinamide (NAM, Sigma-Aldrich) was added to a color developing powder weighing 30 mg, 4.8 mL of a diluted analysis buffer was added thereto, and the resulting mixture was stirred until the powder became a solution.
The plate cover was removed, and 50 μL of the stop/developing solution was added to each well.
The 96-well plate was covered with a plate cover, and incubated at room temperature (25 to 30° C.) for 30 minutes.
The plate cover was removed, and the plate was read using Cytation 5 at an excitation wavelength of 360 nm and an emission wavelength of 450 nm.
The mean fluorescence of each sample was measured.
The fluorescence of the background wells was subtracted from the fluorescence of the 100% initial activity wells and sample wells.
To determine the percent of each sample, each sample value was subtracted from the 100% initial activity value, and the resulting value was divided by the 100% initial activity value and then multiplied by 100 and added to 100, which was expressed as a percentage.

Assay [1] concerns 3T3-L1 preadipocytes. Nature of the assay: Oil-Red-O staining of lipid droplets after induction of 3T3-L1 preadipocyte differentiation. The class given is cell-based, mouse. The conditions noted are these: 50 μM test material; differentiated 3T3-L1 cells. As to the method: (§1) 3T3-L1 mouse preadipocytes (American Type Culture Collection) were incubated in an incubator set to 37° C., humidity of 95% and 5% CO2. The 3T3-L1 mouse preadipocytes were sufficiently proliferated using a proliferation medium (Dulbecco's modified Eagle's medium (DMEM) supplemented with 5% fetal bovine serum (FBS), 100 U/mL of penicillin and 100 μg/mL of streptomycin), and treated with a differentiation medium (DMEM containing 5% FBS, 0.5 mM 3-isobutyl-1-methylxanthine, […] dexamethasone and 10 μg/mL insulin) for 4 days. Afterward, the 3T3-L1 mouse preadipocytes were treated with an induction medium (DMEM containing 5% FBS and 10 μg/mL insulin, DMEM containing 5% FBS) for 2 days, and to maintain differentiated adipocytes until the end of the experiment, the induction medium was replaced every day. The 3T3-L1 cells were used in Experimental Examples 1, 2, and 3.
To confirm capacity of inhibiting the formation of lipid droplets of a test material, 3T3-L1 cells, which are preadipocytes, were induced to differentiate into adipocytes, and then the lipid droplets were stained through the Oil-Red-O staining.
First, after preadipocytes, 3T3-L1 cells, were incubated in a dish having a diameter of 10 cm^2, excluding G1 and G2, the cells were treated with 50 μM of a test material previously diluted with a culture medium (refer to Table 2).
Next, for staining, first, the cell supernatant present in a well was removed, and fixed with 4% paraformaldehyde. Afterward, after adding a 100% 1,2-propanediol dehydration solution, the resulting sample was incubated for 5 minutes, and then an Oil-Red-O stain solution was added for staining of lipid droplets. After the Oil-Red-O staining, an 85% 1,2-propanediol stain differential solution was added for washing.
Finally, after filling a well with D.W. without drying the stained well, the formation of lipid droplets was confirmed by observation using a microscope.
After confirming the formation of lipid droplets using Oil-Red-O staining, a part stained with isopropanol was dissolved, and the degree of staining lipid droplets was confirmed by absorbance at 540 nm. The increase/decrease rate, compared to the normal control, was evaluated using an optical density (OD) value.

The subject of assay [2] is 3T3-L1 preadipocytes. Briefly: Triglyceride content after induction of 3T3-L1 preadipocyte differentiation. The class given is cell-based, mouse. Conditions: differentiated 3T3-L1 cells; predetermined concentration of test material. As to the method: as §1
Preadipocytes, 3T3-L1 cells, were incubated in a dish having a diameter of 10 cm^2 by the same method as described in Experimental Example 1, and then treated with a predetermined concentration of a test material diluted with a culture medium. After treatment, a triglyceride content was confirmed using an assay kit.

Assay [3] relates to 3T3-L1 preadipocytes. Briefly: Glycerol content after induction of 3T3-L1 preadipocyte differentiation. Conditions: differentiated 3T3-L1 cells; predetermined concentration of test material. The class given is cell-based, mouse. The method, then: as §1
Preadipocytes, 3T3-L1 cells, were incubated in a dish having a diameter of 10 cm^2 by the same method as described in Experimental Example 1, and then treated with a predetermined concentration of a test material diluted with a culture medium. After treatment, a glycerol content was confirmed using an assay kit.

Turning to `CCOC(=O)N1CCN(C(=O)/C=C/C=C/c2cccc(OC)c2)CC1` [R-22, Ethyl ((2E,4E)-5-(3-methoxyphenyl)penta-2,4-dienoyl)piperazine-1-carboxylate], on SIRT1 (2 μM), the “increase of SIRT1 activity (FIG. 18)” value was “about 5%”.

On to `CSc1ccc(/C=C/C=C/C(=O)N2CCCC(O)C2)cc1` (centres unmarked) [R-7, (2E,4E)-1-(3-hydroxypiperidine-1-yl)-5-(4-(methylthio)phenyl)penta-2,4-dien-1-one], for which the “amount of stained lipid droplets (Oil-Red-O dissolved in isopropanol, absorbance at 540 nm, FIG. 2)” value (from here on “amount of stained lipid droplets”) with 3T3-L1 preadipocytes [1] was “less than that of the test groups treated with R-3 and 4”. The “triglyceride content (FIG. 3)” value in the assay on 3T3-L1 preadipocytes [2] is “lower than that of the test group treated with R-3”. For the same compound, in the assay with 3T3-L1 preadipocytes [3], the “glycerol content (FIG. 4)” value is recorded as “lower than that of the test group treated with R-3”.

Turning to `CSc1ccc(/C=C/C=C/C(=O)N2CCN(C(=O)OC(C)(C)C)CC2)cc1` [R-28, Tert-butyl 4-((2E,4E)-5-(4-(methylthio)phenyl)penta-2,4-dienoyl)piperazine-1-carboxylate], the “amount of stained lipid droplets” value in the assay on 3T3-L1 preadipocytes [1] was “less than that of the test groups treated with R-3 and 4”. The “triglyceride content (FIG. 3)” value in the assay on 3T3-L1 preadipocytes [2] was “lower than that of the test group treated with R-3”. Also, the “glycerol content (FIG. 4)” value in the assay on 3T3-L1 preadipocytes [3] is reported as “lower than that of the test group treated with R-3”.

Regarding `CSc1ccc(/C=C/C=C/C(=O)N2CCC(O)CC2)cc1` [R-8, (2E,4E)-1-(4-hydroxypiperidine-1-yl)-5-(4-(methylthio)phenyl)penta-2,4-dien-1-one], the “amount of stained lipid droplets” value with 3T3-L1 preadipocytes [1] was “less than that of the test groups treated with R-3 and 4”. Besides, the “triglyceride content (FIG. 3)” value in the assay on 3T3-L1 preadipocytes [2] is listed as “lower than that of the test group treated with R-3”. Besides, in the assay on 3T3-L1 preadipocytes [3], the “glycerol content (FIG. 4)” value is listed as “lower than that of the test group treated with R-3”.

As for `CSc1ccc(/C=C/C=C/C(=O)N2CCOCC2)cc1` [R-30, (2E,4E)-5-(4-(methylthio)phenyl)-1-morpholinopenta-2,4-dien-1-one], in the assay on 3T3-L1 preadipocytes [1], the “amount of stained lipid droplets” value is “less than that of the test groups treated with R-3 and 4”. In addition, the “triglyceride content (FIG. 3)” value in the assay on 3T3-L1 preadipocytes [2] is reported as “lower than that of the test group treated with R-3”. Besides, the “glycerol content (FIG. 4)” value in the assay on 3T3-L1 preadipocytes [3] was “lower than that of the test group treated with R-3”.

As to `COc1ccc(/C=C/C=C/C(=O)N2CCN(C)CC2)cc1` [R-15, (2E,4E)-5-(4-methoxyphenyl)-1-(4-methylpiperazine-1-yl)penta-2,4-dien-1-one], the “amount of stained lipid droplets” value with 3T3-L1 preadipocytes [1] was “less than that of the test groups treated with R-3 and 4”. Moreover, the “triglyceride content (FIG. 3)” value with 3T3-L1 preadipocytes [2] is “lower than that of the test group treated with R-3”. Besides, the “glycerol content (FIG. 4)” value with 3T3-L1 preadipocytes [3] is on record as “lower than that of the test group treated with R-3”.

For `COc1ccc(/C=C/C=C/C(=O)N2CCOCC2)cc1` [R-29, (2E,4E)-5-(4-methoxyphenyl)-1-morpholinopenta-2,4-dien-1-one], the “amount of stained lipid droplets” value with 3T3-L1 preadipocytes [1] is “less than that of the test groups treated with R-3 and 4”. Besides, the “triglyceride content (FIG. 3)” value with 3T3-L1 preadipocytes [2] is “lower than that of the test group treated with R-3”. The “glycerol content (FIG. 4)” value in the assay with 3T3-L1 preadipocytes [3] is “lower than that of the test group treated with R-3”.

Consider `COC1CCN(C(=O)/C=C/C=C/c2ccc(SC)cc2)CC1` [R-9, (2E,4E)-1-(4-methoxypiperidine-1-yl)-5-(4-(methylthio)phenyl)penta-2,4-dien-1-one], for which, in the assay with 3T3-L1 preadipocytes [1], the “amount of stained lipid droplets” value was “less than that of the test groups treated with R-3 and 4”. The “triglyceride content (FIG. 3)” value with 3T3-L1 preadipocytes [2] is “lower than that of the test group treated with R-3”. Further, the “glycerol content (FIG. 4)” value with 3T3-L1 preadipocytes [3] is “lower than that of the test group treated with R-3”.

Regarding `COc1ccc(/C=C/C=C/C(=O)N2CCN(C(=O)OC(C)C)CC2)cc1` [R-26, Isopropyl 4-((2E,4E)-5-(4-methoxyphenyl)penta-2,4-dienoyl)piperazine-1-carboxylate], on SIRT1 (10 μM), the “increase of SIRT1 activity (FIG. 18)” value is given as no less than 10%.

Take `CSc1ccc(/C=C/C=C/C(=O)N2CCC(NC(C)=O)CC2)cc1` [R-11, N-(1-((2E,4E)-5-(4-(methylthio)phenyl)penta-2,4-dienoyl)piperidine-4-yl)acetamide]: the “amount of stained lipid droplets” value in the assay with 3T3-L1 preadipocytes [1] is “less than that of the test groups treated with R-3 and 4”. The “triglyceride content (FIG. 3)” value with 3T3-L1 preadipocytes [2] was “lower than that of the test group treated with R-3”. Besides, the “glycerol content (FIG. 4)” value in the assay on 3T3-L1 preadipocytes [3] is reported as “lower than that of the test group treated with R-3”.

Consider `CSc1ccc(/C=C/C=C/C(=O)N2CCN(C(C)=O)CC2)cc1` [R-17, (2E,4E)-1-(4-acetylpiperazine-1-yl)-5-(4-(methylthio)phenyl)penta-2,4-dien-1-one], for which, in the assay on 3T3-L1 preadipocytes [1], the “amount of stained lipid droplets” value was “less than that of the test groups treated with R-3 and 4”. Besides, in the assay with 3T3-L1 preadipocytes [2], the “triglyceride content (FIG. 3)” value was “lower than that of the test group treated with R-3”. In addition, the “glycerol content (FIG. 4)” value in the assay with 3T3-L1 preadipocytes [3] was “lower than that of the test group treated with R-3”.

The values are drawn from patent US20200157048A1, “(2E,4E)-5-PHENYL-PENTA-2,4-DIEN-1-ONE DERIVATIVE” (BIOWAY., INC, priority 2018, published 2020).
